According to patent US12319655B2, “RAF kinase inhibitors and methods of use thereof” (Deciphera Pharmaceuticals, LLC, priority 2021, dated 2025):

Columns and labels:
[1] = target: C-Raf kinase (SEQ. ID NO: 3) (Homo sapiens (Human), UniProt P04049, Y340D/Y341D); assay: Biochemical Assay for C-Raf (2); settings: Table J, biochemical assay (2); read-out: CRAF (2)
Protocol: Biochemical Assay for C-Raf (2)
(§1) Activity of C-Raf kinase (SEQ. ID NO: 3) was determined spectroscopically using a coupled pyruvate kinase/lactate dehydrogenase assay that continuously monitors the ATP hydrolysis-dependent oxidation of NADH (e.g., Schindler et al., Science, 2000, 289, 1938-1942). Assays were conducted in 384-well plates (25 μL final volume) using 3.84 nM C-Raf (Eurofins), 1.5 units pyruvate kinase, 2.1 units lactate dehydrogenase, 1 mM phosphoenol pyruvate, 0.7 mM NADH, 50 nM MEK (SignalChem), and 1 mM ATP in assay buffer (100 mM Tris, pH 7.5, 15 mM MgCl2, 0.5 mM DTT, 0.1% octyl-glucoside, 0.002% (w/v) BSA, and 0.002% Triton X-100). Inhibition of C-Raf was measured by adding serial diluted test compound (final assay concentration of 1% DMSO). A decrease in absorption at 340 nm was monitored hourly for 4 h at 30° C. on a multi-mode microplate reader (BioTek). The reaction rate was calculated using the 2 to 3 h time frame. The reaction rate at each concentration of compound was converted to percent inhibition using controls (i.e., reaction with no test compound and reaction with a known inhibitor) and IC50 values were calculated by fitting a four-parameter sigmoidal curve to the data using Prism (GraphPad software).

[2] = target: B-Raf (V600E) (SEQ. ID NO: 4) kinase (Homo sapiens (Human), UniProt P15056, V600E); assay: Biochemical Assay for B-Raf (V600E) (2); settings: Table J, BRAF V600E, biochemical assay (2); read-out: BRAF VE (2)
Protocol: Biochemical Assay for B-Raf (V600E) (2)
Activity of B-Raf (V600E) (SEQ. ID NO: 4) kinase was determined spectroscopically using a coupled pyruvate kinase/lactate dehydrogenase assay that continuously monitors the ATP hydrolysis-dependent oxidation of NADH (e.g., Schindler et al., Science, 2000, 289, 1938-1942). Assays were conducted in 384-well plates (25 μL final volume) using 0.5 nM B-Raf (deCode), 1.5 units pyruvate kinase, 2.1 units lactate dehydrogenase, 1 mM phosphoenol pyruvate, 0.7 mM NADH, 100 nM MEK (SignalChem), and 1 mM ATP in assay buffer (100 mM Tris, pH 7.5, 15 mM MgCl2, 0.5 mM DTT, 0.1% octyl-glucoside, 0.002% (w/v) BSA, and 0.002% Triton X-100). Inhibition of B-Raf (V600E) was measured by adding serial diluted test compound (final assay concentration of 1% DMSO). A decrease in absorption at 340 nm was monitored hourly for 4 h at 30° C. on a multi-mode microplate reader (BioTek). The reaction rate was calculated using the 3 to 4 h time frame. The reaction rate at each concentration of compound was converted to percent inhibition using controls (i.e., reaction with no test compound and reaction with a known inhibitor) and IC50 values were calculated by fitting a four-parameter sigmoidal curve to the data using Prism (GraphPad software).

WM3928 cells = assay: WM3928 Cell Proliferation Assay (2); assay type: cell-based
Protocol: WM3928 Cell Proliferation Assay (2)
WM3928 cells (#WM3928-01-0001) are obtained from Rockland Immunochemicals Inc (Gilbertsville, PA). Briefly, cells were grown in MCDB 153 medium (Sigma, #M7403, St. Louis, MO) supplemented with 20% Leibovitz's L-15 (ThermoFisher #11415-064, Waltham, MA), 2% heat inactivated fetal bovine serum (ThermoFisher, #A3840001, Waltham, MA), 5 μg/mL Insulin (Bovine Pancreas) (Sigma, #10516, St. Louis, MO), 1.68 mM Calcium Chloride (Sigma, #C-34006, St. Louis, MO) and 1% Penicillin/Streptomycin/L-Glutamine (ThermoFisher #10378016, Waltham, MA) at 37° C., 5% CO2, and 95% humidity. Cells are expanded until reaching 70-95% confluency at which point they are sub-cultured or harvested for assay use. Using the Beckman Coulter Echo 650, a serial dilution of test compound is dispensed into a 384-well black clear bottom plate in triplicate. Seven hundred fifty cells are added per well in 50 μL complete growth medium in the 384-well plate. Plates are incubated for 67-72 hours at 37° C., 5% CO2, and 95% humidity. At the end of the incubation, 10 μL of a 440 μM solution of resazurin (Sigma, #199303, St. Louis, MO) in PBS is added to each well of the plate and plates are incubated for an additional 3-6 hours at 37° C., 5% CO2, and 95% humidity. Plates are read on a Synergy2 or equivalent reader (Biotek, Winooski VT) using an excitation of 540 nm and an emission of 600 nm. Data is analyzed using Prism software (GraphPad, San Diego, CA) to calculate IC50 values.

[3] = target: B-Raf kinase (SEQ. ID NO: 2) (Homo sapiens (Human), UniProt P15056); assay: Biochemical Assay for B-Raf (2); settings: Table J, biochemical assay (2); read-out: BRAF (2)
Protocol: Biochemical Assay for B-Raf (2)
as §1, with “B-Raf” for “C-Raf”, “2)” for “3)”, “2” for “3.84”, “B-Raf (Sigma),” for “C-Raf (Eurofins),”

Sequence of B-Raf (V600E) (SEQ. ID NO: 4) kinase (P15056 416-766 V600E): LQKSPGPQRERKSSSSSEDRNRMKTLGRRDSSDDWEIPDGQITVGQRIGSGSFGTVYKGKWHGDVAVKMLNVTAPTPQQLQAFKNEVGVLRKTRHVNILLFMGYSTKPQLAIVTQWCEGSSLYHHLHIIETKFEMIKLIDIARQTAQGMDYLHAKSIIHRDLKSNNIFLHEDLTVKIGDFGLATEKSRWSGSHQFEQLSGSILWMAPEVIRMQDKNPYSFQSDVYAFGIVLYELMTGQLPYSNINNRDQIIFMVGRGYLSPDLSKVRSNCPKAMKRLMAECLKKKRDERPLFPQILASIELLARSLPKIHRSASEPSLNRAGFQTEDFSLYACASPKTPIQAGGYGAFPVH
Sequence of B-Raf kinase (SEQ. ID NO: 2) (P15056 416-766): as the sequence (P15056 416-766 V600E) above, with E185V counted along it
Sequence of C-Raf kinase (SEQ. ID NO: 3) (P04049 307-648 Y340D/Y341D): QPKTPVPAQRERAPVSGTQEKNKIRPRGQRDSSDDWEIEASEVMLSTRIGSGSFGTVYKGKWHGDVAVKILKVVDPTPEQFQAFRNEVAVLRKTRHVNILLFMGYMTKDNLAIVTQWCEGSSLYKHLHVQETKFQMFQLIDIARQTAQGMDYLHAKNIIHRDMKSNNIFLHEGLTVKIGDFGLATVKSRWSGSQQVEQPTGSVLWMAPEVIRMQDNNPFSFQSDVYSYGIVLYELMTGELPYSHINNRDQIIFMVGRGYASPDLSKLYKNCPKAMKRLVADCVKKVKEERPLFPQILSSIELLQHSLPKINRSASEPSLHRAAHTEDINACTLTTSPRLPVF

SMILES	IC50 [1] [µM]	IC50 [2] [µM]	IC50 (WM3928 cells) [µM]	IC50 [3] [µM]
CNC(=O)c1cc(-c2cc(-c3cc(NC(=O)c4ccnc(C(C)C)c4)cnc3C)ccn2)ccn1 [Example 465]	≤ 0.1	≤ 0.1	0.1 to 0.5	0.1 to 0.5
Cc1ncc(NC(=O)c2ccnc(C(C)(F)F)c2)cc1-c1ccnc(-c2ccnc(NC(=O)C3CC3)c2)c1 [Example 466]	≤ 0.1	≤ 0.1	≤ 0.1	≤ 0.1
Cc1ccc(NC(=O)c2ccnc(C(C)C)c2)cc1-c1ccnc(-c2ccnc(NC(=O)C3CC3)c2)c1 [Example 467]	≤ 0.1	≤ 0.1	≤ 0.1	≤ 0.1
Cc1ncc(NC(=O)c2ccnc(C(C)C)c2)cc1-c1ccnc(-c2ccnc(NC(=O)C3CC3)c2)c1 [Example 468]	≤ 0.1	≤ 0.1	≤ 0.1	≤ 0.1
CNC(=O)c1cc(-c2cc(-c3cc(NC(=O)c4ccnc(C(C)(C)F)c4)ccc3C)c(F)cn2)ccn1 [Example 469]	≤ 0.1	≤ 0.1	0.1 to 0.5	≤ 0.1
CNC(=O)c1cc(-c2cc(-c3cc(NC(=O)c4ccnc(C(C)(C)F)c4)ccc3C)cc(C)n2)ccn1 [Example 470]	≤ 0.1	≤ 0.1	≤ 0.1	0.1 to 0.5
CNC(=O)c1cc(-c2cc(-c3cc(NC(=O)c4ccnc(C(C)(C)F)c4)ccc3C(F)(F)F)ccn2)ccn1 [Example 471]	1 to 10	1 to 10	1 to 10	1 to 10
CNC(=O)c1cc(-c2cc(-c3cc(NC(=O)c4ccnc(C(C)(C)F)c4)ccc3C)c(C)cn2)ccn1 [Example 472]	0.5 to 1	≤ 0.1	0.5 to 1	0.5 to 1
CNC(=O)c1cc(-c2cc(-c3cc(NC(=O)c4ccnc(C(C)(C)F)c4)ccc3C)cnn2)ccn1 [Example 473]	≤ 0.1	≤ 0.1	≤ 0.1	0.1 to 0.5
CNC(=O)c1cc(-c2cc(-c3cc(NC(=O)c4ccnc(C(C)(C)F)c4)ccc3C)ncn2)ccn1 [Example 474]	≤ 0.1	≤ 0.1	≤ 0.1	≤ 0.1
CNC(=O)c1cc(-c2cc(-c3cc(F)cc(NC(=O)c4ccnc(C(C)(C)F)c4)c3F)ccn2)ccn1 [Example 475]	1 to 10	1 to 10	1 to 10	1 to 10
Cc1ccc(NC(=O)c2ccnc(C(C)(C)F)c2)cc1-c1ccnc(-c2ccnc(C(N)=O)c2)c1 [Example 476]	≤ 0.1	≤ 0.1	≤ 0.1	≤ 0.1
CNC(=O)c1cc(-c2cc(-c3cc(NC(=O)c4cnnc(C(F)(F)F)c4)ccc3C)ccn2)ccn1 [Example 477]	≤ 0.1	0.1 to 0.5	0.5 to 1	≤ 0.1
CNC(=O)c1cc(-c2cc(-c3cc(NC(=O)c4ccnc(C(C)(C)F)c4)cc(F)c3F)ccn2)ccn1 [Example 478]	0.1 to 0.5	≤ 0.1	0.1 to 0.5	0.1 to 0.5
CNC(=O)c1cc(-c2cc(-c3cc(NC(=O)c4ccnc(C(C)(C)F)c4)ccc3F)ccn2)ccn1 [Example 479]	≤ 0.1	0.1 to 0.5	≤ 0.1	0.1 to 0.5
CNC(=O)c1cc(-c2cc(-c3cc(NC(=O)c4ccnc(C(C)(C)F)c4)cc(F)c3C)ccn2)ccn1 [Example 480]	0.1 to 0.5	≤ 0.1	≤ 0.1	0.1 to 0.5
CNC(=O)c1cc(-c2cc(-c3cc(NC(=O)c4ccnc(C(C)(C)F)c4)ccn3)ccn2)ccn1 [Example 481]	0.5 to 1	1 to 10	1 to 10	1 to 10
CNC(=O)c1cc(-c2cc(-c3cc(NC(=O)c4ccnc(C(C)(C)F)c4)c(F)cc3F)ccn2)ccn1 [Example 482]	≤ 0.1	≤ 0.1	0.1 to 0.5	0.1 to 0.5
Cc1cc(-c2cc(NC(=O)c3ccnc(C(C)(C)F)c3)ccc2C)cc(-c2ccnc(C#N)c2)n1 [Example 483]	≤ 0.1	0.1 to 0.5	0.5 to 1	0.1 to 0.5
Cc1cc(-c2cc(NC(=O)c3ccnc(C(C)(C)F)c3)ccc2C)cc(-c2ccnc(C(N)=O)c2)n1 [Example 484]	≤ 0.1	≤ 0.1	≤ 0.1	≤ 0.1
